Results published in US7285618B1, “Polypeptides having neutrophil stimulating activity” (Japan Tobacco Inc., priority 2000, dated 2007).
Read-outs that look alike come from different tables or passages of the source. Where no end group is shown, it is not given here.

What was measured:
[1] = system: differentiated HL60 cells; format: cell-based, human; conditions: for secretion of β-HA upon stimulation after PTX treatment: cells treated with 50 ng/ml PTX for 16 hours; for Percentage of maximum secretion activity (%/control): control = β-HA released upon 10 μM fMLP; for β-HA secretion from differentiated HL60 cells (%/total): total = β-HA released with 0.05% Triton X-100
Description: a. Cultivation of HL60 Cells and Induction to the Differentiated Neutrophil-Like Cells For cultivation, heat-inactivated FCS (final concentration; 10%), streptomycin (final concentration; 100 mg/l), penicillin G (final concentration of 10^5 units/l) and RPMI-1640 culture solution containing 10 mM Hepes (pH 7.4) were used. Cells were cultivated at a cell density of 2×10^5-1.5×10^6 cells/ml in a plastic flask (80 cm^2, 260 ml, Nunc) at 37° C. under stationary conditions with a 5% of CO2 concentration and a 100% of humidity. […] c. […] Measuring β-HA Enzyme Activity The amount of β-HA secreted into the reaction supernatant was determined by measuring the absorbance at 415 nm of p-nitrophenol that was generated by an enzymatic reaction involving p-nitrophenyl N-acetyl-β-D-glucosaminide as a substrate. To be specific, 90 μl of the reaction supernatant was transferred to a 96-well Immuno plate (Nunc) and 60 μl of a substrate solution (10 mM p-nitrophenyl N-acetyl-β-D-glucosaminide/40 mM citrate, 70 mM Na2HPO4, pH 4.5) was added to initiate an enzymatic reaction. Following a 1-hr reaction at 37° C., 100 μl of a reaction quencher (400 mM glycine, pH 10.7) was added to stop the reaction and the absorbance at 415 nm was measured. As a control, cells were treated with Triton X-100 at a final concentration of 0.05% and the amount of β-HA in the supernatant was measured. As another control, the amount of β-HA secreted from cells upon stimulation with fMLP at a final concentration of 10 μM was measured.

[2] = system: differentiated HL60 cells
Description: (§1) The differentiated HL60 cells and human leukocyte cells were washed three times with ice-cooled 0.1% BSA containing Hepes buffered Hank's solution (HBHS; 10 mM Hepes, 136.9 mM NaCl, 5.4 mM KCl, 1.2 mM CaCl2, 0.44 mM KH2PO4, 0.49 mM MgCl2, 0.41 mM MgSO4, 0.34 mM Na2HPO4, 5.5 mM glucose, 4.2 mM NaHCO3, pH 7.4). A cell suspension was prepared for each cell type at 5.5×10^6 cells/ml. Cytochalasin B and DNase I were then added to each cell suspension at a final concentration of 5 μg/ml. Ninety μl of each cell suspension was then transferred to an ice-cooled tube (5.0×10^5 cells/tube) and incubated at 37° C. for 10 minute. To each tube, either one of the fractions of polypeptide (or extract) in solution (10 μl) was added and incubated at 37° C. for 10 minutes to stimulate the cells. Immediately after the treatment, 200 μl of ice-cooled reaction quenching buffer (25 mM Tris, 123 mM NaCl, 2.7 mM KCl, pH 7.4) was added to the cell suspensions to stop the stimulation. Thereafter, the tubes were spun down at 4° C. for 60 seconds to precipitate the cell pellets and the β-HA activity and the lactate dehydrogenase (LDH) activity in the supernatant were measured.
(§2) The amount of LDH secreted into the reaction mixture was determined by measuring the absorbance (340 nm) of NADH generated by reduction of that NAD involves dehydrogenation of lactate. Reaction was initiated by adding a 400 μl of a substrate-buffer solution (125 mM 2-amino-2-methyl-1-propanol, 125 mM lithium lactate, 6.25 mM NAD, pH 9.5) to a 100 μl of the reaction supernatant. Following a 1-hr incubation at 37° C., the mixture was quenched in ice water to stop the reaction and the absorbance at 340 nm was measured.
(§3) The LDH enzyme activity secreted in the reaction mixture was expressed as the percentage of the total enzyme activity in cells (%/total) which was the enzyme activity of LDH released upon disruption of the cells with 0.05% Triton X-100.

[3] = system: monocyte and lymphocyte mixed cells; experiment: β-HA secretion from monocyte and lymphocyte mixed cells; format: cell-based, human
[4] = system: differentiated HL60 cells; experiment: LDH leakage from HL60 cells
Description: as §1, §2, §3

[5] = biological target: T1, fMLP receptor (Homo sapiens, UniProt P21462); experiment: [3H]fMLP binding to the fMLP receptor on differentiated HL60 cells; conditions: [3H]fMLP 50 nM, 22° C., 60 minutes; COSP-1 up to 10 μM
T1 construct: fMLP receptors are expressed on the surfaces of the cells as they differentiate into neutrophil-like cells; endogenous in cells; host or cells: HL60 cells differentiated with db-cAMP (whole cells)
T1 sequence (P21462 1-350): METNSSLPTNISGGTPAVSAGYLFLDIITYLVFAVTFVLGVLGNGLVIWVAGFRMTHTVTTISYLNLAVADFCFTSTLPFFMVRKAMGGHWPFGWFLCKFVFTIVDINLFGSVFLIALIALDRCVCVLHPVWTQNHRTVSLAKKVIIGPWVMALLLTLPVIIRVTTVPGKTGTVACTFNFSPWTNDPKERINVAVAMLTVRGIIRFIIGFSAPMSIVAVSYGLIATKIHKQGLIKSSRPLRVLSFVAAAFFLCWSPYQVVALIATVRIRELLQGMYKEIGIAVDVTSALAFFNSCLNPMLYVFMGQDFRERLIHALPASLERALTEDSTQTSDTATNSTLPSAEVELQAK
Description: The binding study of COSP-1 to the fMLP receptor was done using the differentiated HL60 cells. The differentiated HL60 cells were washed twice with HBHS. Then, the cells were suspended at 3.1×10^7 cells/ml and this suspension was transferred to tubes (2.5×10^6 cells/80 μl) and incubated at 22° C. for 10 minutes. Subsequently, various concentrations of COSP-1 or fMLP (10 μl) were added and incubated at 22° C. for 5 minutes. Thereafter, 10 μl of [^3H]fMLP (final concentration at 50 nM) was added and reaction was performed at 22° C. for 60 minutes. By adding 500 μl of ice-cooled PBS-BSA (10 mM phosphate, 120 mM NaCl, 0.5% BSA), the reaction was stopped. The treated cell suspension was then passed through a glass-fiber filter (Whatman GF/C) and the filter was washed three times with ice-cooled PBS-BSA (2 ml) to remove [^3H]fMLP not bound to the cells. The glass-fiber filter was dried and a scintillant was added to a solution for radioactivity measurement.
The measurements of binding of the fMLP to the fMLP receptors were expressed as the percentage (%/total) for a maximum binding which was shown as the radioactivity of [^3H]fMLP having specific binding to the receptors in the absence of an unlabelled ligand.

[6] = system: G protein (Gi); experiment: GTPase activity of purified Gi reconstituted on a phospholipid membrane; format: biochemical, rabbit; conditions: 3 μM
Excerpt: G protein (Gi), which is present in neutrophils and involved in […] of fMLP, was extracted from the rabbit liver and purified (J. Biol. Chem. 267, 16237-16243, 1992). The purified Gi was reconstituted on a phospholipid membrane, and it was challenged by fCyt b (1-15) or COSP-1. We measured GTPase activity for these stimulations.

| Compound | secretion of β-HA upon stimulation after PTX treatment [1] | Percentage of maximum secretion activity (%/control) [1] | β-HA secretion from differentiated HL60 cells (%/total) [1] | LDH leakage from the HL60 cells [2] | β-HA secretion from monocyte and lymphocyte mixed cells (%/total) [3] | secretion of β-HA in the monocyte and lymphocyte mixed cells ([3]; stimulation with 10 μM) | promoted secretion of β-HA under Boc-MLF treatment ([1]; Boc-MLF treatment, data not shown) | LDH leakage from the HL60 cells ([4]; Example 6) | LDH leakage out of the cells ([4]; differentiated HL60 cells, Example 4) | inhibition of the specific binding between [3H]fMLP and fMLP receptors [5] | stimulation of the GTPase activity of Gi [6] |
| --- | --- | --- | --- | --- | --- | --- | --- | --- | --- | --- | --- |
| CSCC[C@H](NC=O)C(=O)N[C@@H](CC(C)C)C(=O)N[C@@H](Cc1ccccc1)C(=O)O [fMLP, formyl methionyl-leucyl-phenylalanine, reference compound] | almost completely inhibited | 100 %/control | 67.4 %/total | neither of COSP-1 and fMLP caused LDH leakage | 21.8 ± 5.3 %/total | 21.8±5.3% |  |  |  |  |  |
| LSFLIPAGWVLSHLDHYKRSSAA-OH [COSP-1] | almost completely inhibited | 93.6 ± 2.8 %/control | 63.1 %/total |  |  |  | significantly suppressed | neither of COSP-1 and fMLP caused LDH leakage | no LDH was found to leak out | not by COSP-1 even when its final concentration was reacted to 10 μM | about 6 fold |
